ChEMBL document CHEMBL6092194, “Development of membrane-targeting chalcone derivatives as antibacterial agents against multidrug-resistant bacteria” (Eur J Med Chem, 2024)
Active and inactive are the calls of the source. The rule behind the calls is not given here.

What was measured:
[1] = test system: Staphylococcus aureus; assay: Antibacterial activity against erythromycin susceptible Staphylococcus aureus ATCC25923 by broth microdilution assay; format: functional
[2] = test system: Staphylococcus aureus; assay: Antibacterial activity against penicillin-resistant Staphylococcus aureus ATCC31007 by broth microdilution assay; format: functional
[3] = test system: Staphylococcus aureus; assay: Antibacterial activity against penicillin-resistant Staphylococcus aureus ATCC43300 by broth microdilution assay; format: functional
[4] = test system: Escherichia coli; assay: Antibacterial activity against penicillin-susceptible Escherichia coli ATCC25922 by broth microdilution method; format: functional
[5] = test system: Pseudomonas aeruginosa; assay: Antibacterial activity against penicillin-susceptible Pseudomonas aeruginosa ATCC27853 by broth microdilution method; format: functional
[6] = test system: Staphylococcus aureus; assay: Bactericidal activity against Staphylococcus aureus ATCC43300 in Mueller Hinton Broth; format: functional
[7] = test system: Escherichia coli; assay: Bactericidal activity against Escherichia coli ATCC25922 in presence of 50% serum; format: functional
[8] = test system: Staphylococcus aureus; assay: Bactericidal activity against Staphylococcus aureus ATCC43300 assessed as log reduction in bacterial colony at 8 microg/ml measured upto 24 hrs by time-kill kinetics assay; format: functional; conditions: dose 8 µg/ml
[9] = test system: Escherichia coli; assay: Disruption of preformed biofilm in Escherichia coli ATCC25922 assessed as eradication of biofilm at 8 microg/ml relative to control; format: functional; conditions: dose 8 µg/ml
[10] = test system: Staphylococcus aureus; assay: Disruption of preformed biofilm in Staphylococcus aureus ATCC43300 assessed as eradication of biofilm at 32 microg/ml relative to control; format: functional; conditions: dose 32 µg/ml
[11] = test system: Escherichia coli; assay: Disruption of preformed biofilm in Escherichia coli ATCC25922 assessed as eradication of biofilm at 32 microg/ml relative to control; format: functional; conditions: dose 32 µg/ml
[12] = test system: Staphylococcus aureus; assay: Induction of morphological changes in Staphylococcus aureus ATCC43300 assessed as rough appearance of cell membrane by scanning electron microscopic analysis; format: functional, organism-based
[13] = test system: Staphylococcus aureus; assay: Induction of morphological changes in Staphylococcus aureus ATCC43300 assessed as collapse of cell membrane by scanning electron microscopic analysis; format: functional, organism-based
[14] = test system: Escherichia coli; assay: Induction of morphological changes in Escherichia coli ATCC25922 assessed as collapse of cell membrane by scanning electron microscopic analysis; format: functional, organism-based
[15] = test system: Cell membrane; assay: Disruption of cell membrane in Escherichia coli ATCC25922 assessed as appearance of blue fluorescence by DAPI staining based fluorescence microscopic analysis; format: subcellular
[16] = test system: Cell membrane; assay: Induction of cytoplasmic membrane depolarization in Escherichia coli ATCC25922 assessed as increase in fluorescence intensity measured after 24 mins by DiSC3(5) dye-based fluorescence assay; conditions: dose 0.5-8 µg/ml
[17] = test system: Cell membrane; assay: Induction of cytoplasmic membrane depolarization in Staphylococcus aureus ATCC43300 assessed as increase in fluorescence intensity at 0.5 microg/ml measured after 24 mins by DiSC3(5) dye-based fluorescence assay; conditions: dose 0.5 µg/ml
[18] = test system: Cell membrane; assay: Induction of inner membrane permeabilization in Escherichia coli ATCC25922 assessed as increase in fluorescence intensity incubated for 20 mins by PI uptake assay; format: subcellular; conditions: dose 0.5-8 µg/ml
[19] = test system: Cell membrane; assay: Induction of inner membrane permeabilization in Escherichia coli ATCC25922 assessed as fold increase in fluorescence intensity at 8 microg/ml incubated for 20 mins by PI uptake assay relative to negative control; format: subcellular; conditions: dose 8.0 µg/ml
[20] = test system: Cell membrane; assay: Disruption of cell membrane in Staphylococcus aureus ATCC43300 assessed as increase in intracellular ROS level by DCFH-DA staining based fluorescence analysis; format: subcellular; conditions: dose 1-8 µg/ml
[21] = test system: Cell membrane; assay: Disruption of cell membrane in Staphylococcus aureus ATCC43300 assessed as increase in intracellular ROS level by measuring fold increase in fluorescence intensity at 8 microg/ml by DCFH-DA staining based fluorescence analysis relative to blank control group; conditions: dose 8.0 µg/ml
[22] = test system: Cell membrane; assay: Disruption of cell membrane in Staphylococcus aureus ATCC43300 assessed as increase in DNA leakage; conditions: dose 1-8 µg/ml
[23] = Toxicity in BALB/c mouse assessed as survival rate at 20 to 50 mg/kg, ip administered for 7 days relative to control; format: organism-based; conditions: in vivo, dose 20-50 mg/kg, time 7 day
[24] = test system: Staphylococcus aureus; assay: Antibacterial activity against Staphylococcus aureus ATCC43300 infected in sepsis mouse model assessed as log reduction in bacterial load in blood at 5 mg/kg pre-infected with bacteria for 1 hrs followed by compound administration at 12 hrs interval for 2 days relative to control; format: functional; conditions: time 2 day
[25] = test system: Staphylococcus aureus; assay: Antibacterial activity against Staphylococcus aureus ATCC43300 infected in sepsis mouse model assessed as log reduction in bacterial load in kidney at 10 mg/kg pre-infected with bacteria for 1 hrs followed by compound administration at 12 hrs interval for 2 days relative to control; format: functional; conditions: time 2 day
[26] = test system: Staphylococcus aureus; assay: Antibacterial activity against Staphylococcus aureus ATCC43300 infected in sepsis mouse model assessed as log reduction in bacterial load in blood at 10 mg/kg pre-infected with bacteria for 1 hrs followed by compound administration at 12 hrs interval for 2 days relative to control; format: functional; conditions: time 2 day
[27] = test system: Staphylococcus aureus; assay: Antibacterial activity against Staphylococcus aureus ATCC43300 infected in sepsis mouse model assessed as reduction in liver damage at 5 to 10 mg/kg pre-infected with bacteria for 1 hrs followed by compound administration at 12 hrs interval for 2 days by H and E staining based analysis; format: functional, organism-based; conditions: dose 5-10 mg/kg, time 2.0 day
[28] = test system: Staphylococcus aureus; assay: Antibacterial activity against Staphylococcus aureus ATCC43300 infected in sepsis mouse model assessed as reduction in kidney damage at 5 to 10 mg/kg pre-infected with bacteria for 1 hrs followed by compound administration at 12 hrs interval for 2 days by H and E staining based analysis; format: functional, organism-based; conditions: dose 5-10 mg/kg, time 2.0 day
[29] = test system: Escherichia coli; assay: Antibacterial activity against Escherichia coli ATCC25922 infected in sepsis mouse model assessed as reduction in spleen inflammation at 5 to 10 mg/kg pre-infected with bacteria for 1 hrs followed by compound administration at 12 hrs interval for 2 days by H and E staining based analysis; format: functional, organism-based; conditions: dose 5-10 mg/kg, time 2.0 day
[30] = test system: Escherichia coli; assay: Antibacterial activity against Escherichia coli ATCC25922 infected in sepsis mouse model assessed as reduction in kidney inflammation at 5 to 10 mg/kg pre-infected with bacteria for 1 hrs followed by compound administration at 12 hrs interval for 2 days by H and E staining based analysis; format: functional, organism-based; conditions: dose 5-10 mg/kg, time 2.0 day
[31] = test system: Staphylococcus aureus; assay: Antibacterial activity against Staphylococcus aureus ATCC43300 infected in sepsis mouse model assessed as reduction in inflammatory cell infiltration in kidney at 10 mg/kg pre-infected with bacteria for 1 hrs followed by compound administration at 12 hrs interval for 2 days by H and E staining based analysis; format: functional, organism-based; conditions: time 2.0 day
[32] = test system: Escherichia coli; assay: Antibacterial activity against Escherichia coli ATCC25922 infected in sepsis mouse model assessed as reduction in inflammatory cell infiltration in kidney at 10 mg/kg pre-infected with bacteria for 1 hrs followed by compound administration at 12 hrs interval for 2 days by H and E staining based analysis; format: functional, organism-based; conditions: time 2.0 day
[33] = Selectivity ratio of MBC for Staphylococcus aureus ATCC43300 in presence of 50% plasma to MBC for Staphylococcus aureus ATCC43300 in Mueller Hinton Broth; format: functional
[34] = Ratio of MBC for Escherichia coli ATCC25922 in presence of 50% plasma to MBC for Escherichia coli ATCC25922 in Mueller Hinton Broth; format: functional
[35] = test system: Escherichia coli; assay: Ratio of MBC for Escherichia coli ATCC25922 in presence of 50% serum to MBC for Escherichia coli ATCC25922 in Mueller Hinton Broth; format: functional

CCCCCCOc1cc[n+](CCCOc2ccc(/C=C/C(=O)c3ccc(OCCC[n+]4ccc(OCCCCCC)cc4)cc3)cc2)cc1.[Br-].[Br-]
MIC [1]: 1 µg/mL
MIC [2]: 1 µg/mL
MIC [3]: 0.5 µg/mL
MIC [4]: 1 µg/mL
MIC [5]: 32 µg/mL
MBC [6]: 4 µg/mL
MBC [7]: 32 µg/mL
log(activity) [8]: 7.24
Activity [9]: 41.61%
Activity [10]: >35.94%
Activity [11]: >49.08%
Activity [12]: Active
Activity [13]: Active
Activity [14]: Active
Activity [15]: Active
Activity [16]: Dose-dependent-effect
Activity [17]: Not active; Fluorescence Intensity Remained Comparable To Negative Control
Activity [18]: Dose-dependent-effect
fold change (FC) [19]: 1.9
Activity [20]: Dose-dependent-effect
fold change (FC) [21]: 1.7
Activity [22]: Dose-dependent-effect
survival at 168 h [23]: 100%
log(activity) [24]: 0.8
log(activity) [25]: 1.76
log(activity) [26]: 1.61
Activity [27]: Active
Activity [28]: Active
Activity [29]: Active
Activity [30]: Active
Activity [31]: inactive
Activity [32]: inactive
Ratio [33]: <2
Ratio [34]: <2
Ratio [35]: < 2
